Experimental data: patent publication US20220220145A1, “CYCLIC PHOSPHATE COMPOUNDS” (priority 2019, published 2022)

Assay: Tissue distribution following oral administration of reference compounds and the disclosed compounds
Format: in vivo
Conditions: rats; for levels of nucleoside phosphates in the liver compared to the reference compounds: oral administration, statement in words summarising Table 1
Description: The liver specificity of the disclosed compounds is compared relative to a corresponding active compound in liver and other organs that could be targets of toxicity.
Reference compounds and the cyclic phosphate compounds were administered at 5-50 mg/kg to fasted rats by oral gavage. Plasma concentrations of the metabolites, and parent compounds in circulation and in the hepatic portal vein were determined by HPLC-UV, and the liver, small intestine, and other organ concentrations were measured by LC-MS using standard chromatography methods.

Row | SMILES | levels of nucleoside phosphates in the liver compared to the reference compounds | NUCHPV: ratio of new compound vs corresponding reference compound in nucleoside level in hepatic portal vein (HPV) (one hour after oral administration at 5 mg/kg nucleoside equivalent dose, hepatic portal vein) | NMPliver: ratio of new compound vs corresponding reference compound in nucleoside monophosphate level in the liver (one hour after oral administration at 5 mg/kg nucleoside equivalent dose, liver) | NUCblood: ratio of new compound vs corresponding reference compound in nucleoside level in systemic blood (one hour after oral administration at 5 mg/kg nucleoside equivalent dose, systemic blood)
1 | [2H]C([2H])([2H])c1cn([C@H]2C[C@@H]3OP(=O)(OCc4ccccc4C(=O)OCCC)OC[C@H]3O2)c(=O)[nH]c1=O (stereo partly drawn) [Compound 106, Propyl 2-((((4aR,6R,7aS)-6-(5-(methyl-d3)-2,4-dioxo-3,4-dihydropyrimidin-1(2H)-yl)-2-oxidotetrahydro-4H-furo[3,2-d][1,3,2]dioxaphosphinin-2-yl)oxy)methyl)benzoate] | substantially higher levels |  |  | 
2 | CC(C)OC(=O)c1ccccc1COP1(=O)OC[C@H]2O[C@@H](n3ccc(=O)[nH]c3=O)[C@](C)(F)[C@@H]2O1 (stereo partly drawn) [Compound 107, Isopropyl 2-((((4aR,6R,7R,7aR)-6-(2,4-dioxo-3,4-dihydropyrimidin-1(2H)-yl)-7-fluoro-7-methyl-2-oxidotetrahydro-4H-furo[3,2-d][1,3,2]dioxaphosphinin-2-yl)oxy)methyl)benzoate] | substantially higher levels |  |  | 
3 | [2H]C([2H])([2H])c1cn([C@H]2C[C@H](O)[C@@H](CO)O2)c(=O)[nH]c1=O [Thymidine-d3] |  | 1.0 | 1.0 | 1.0
